For one data set, the system named is beta TC-6 cell line. The data set is described as follows: Insulin release assay (insulin ELISA). The format is cell-based, mouse. Particulars: for Insulin release: 5 mM glucose, 30 minutes, Beta-TC-6 cells, cells only 1.37-3.67. Here is the method:
This was derived from a pancreatic tumor (insulinoma) arising in a transgenic mouse.
Beta-TC-6 cells were purchased from A.T.C.C. (A.T.C.C. number CCL-11506; Manassas, Va., U.S.A.). Beta-TC-6 cells were cultured in Dulbecco's Modified Eagle's medium supplemented with 15% (v/v) heat-inactivated foetal bovine serum, 1% (v/v) glutamine, 0.45% (w/v) glucose and 0.15% (w/v) sodium bicarbonate at 37° C. in a humidified 5% CO2 atmosphere. Beta-TC-6 cells form islands and the monolayer never becomes confluent; cells were passaged at 70% confluence (7 days from seeding) at a subcultivation ratio of 1:4. The monolayer was disrupted from the surface of the culture flask with 0.25% (w/v) Trypsin-0.53 mM EDTA.
Beta-TC-6 cells were cultured in 12 well plates for between 4-8 days prior to use. Cells were cultured in Krebs-Ringer (10 mM Hepes, pH 7.4, 136 mM NaCl, 4.7 mM KCl and 1.25 mM MgSO4) supplemented with 5 mM glucose for 1 hr at 37° C. in a humidified 5% CO2 atmosphere. This medium was removed, cells washed with Krebs-Ringer. Beta-TC-6 cells were then cultured in 1 ml per well of Krebs-Ringer supplemented with 5 mM glucose and 0, 0.12, 0.6, 3 and 15 μM of peptide in duplicate for 30 minutes at 37° C. in a humidified 5% CO2 atmosphere. Medium was removed, diluted 1:5, and insulin concentration determined using an insulin ELISA kit (Mercodia, Uppsala, Sweden) according to the manufacturer's protocol. Beta-TC-6 cells were washed three times with ice-cold PBS and extracted into 0.5 ml lysis buffer (62.5 mM Tris, pH 7.5, and 1%, v/v, SDS) per well. Protein concentration was determined by Lowry assay. […] Only single-sided p values are shown.

Data set [1] concerns the target DPP-IV (Homo sapiens, UniProt P27487). Description: Dipeptidyl Peptidase IV (DPP-IV) digestion, stability by RP-HPLC (Example 10). The format is in vitro ADME.
Description: (§1) Their stabilities were monitored by RP-HPLC, noting the disappearance of the intact sequence and appearance of a species missing the N terminal dipeptide or similar fragment.
For data set [2], the system named is DPP-IV. The description is as above. Conditions: DPP-IV (isolated peptidase); pH 7.5, 37° C., DPP-IV, 22 hr; new species at 3220 mu, loss of the His-Ala dimer; read-out: share hydrolyzed by DPP-IV within 22 hr. It is filed as in vitro ADME.
Description: as §1
A short description of data set [3]: Control study: chemical stability in PBS/triethanolamine without DPP-IV. The format is physicochemical. Conditions: PBS/triethanolamine solution without DPP-IV, PBS/TEthA, pH 7.5, 37°, no DPP-IV, read-out: percentage of peptide remaining. Here is the method: In the control study, peptides were incubated with PBS/triethanolamine solution in the absence of DPP-IV to measure their chemical stability.

DPP-IV (Homo sapiens, UniProt P27487), sequence (P27487 whole entry, species assumed): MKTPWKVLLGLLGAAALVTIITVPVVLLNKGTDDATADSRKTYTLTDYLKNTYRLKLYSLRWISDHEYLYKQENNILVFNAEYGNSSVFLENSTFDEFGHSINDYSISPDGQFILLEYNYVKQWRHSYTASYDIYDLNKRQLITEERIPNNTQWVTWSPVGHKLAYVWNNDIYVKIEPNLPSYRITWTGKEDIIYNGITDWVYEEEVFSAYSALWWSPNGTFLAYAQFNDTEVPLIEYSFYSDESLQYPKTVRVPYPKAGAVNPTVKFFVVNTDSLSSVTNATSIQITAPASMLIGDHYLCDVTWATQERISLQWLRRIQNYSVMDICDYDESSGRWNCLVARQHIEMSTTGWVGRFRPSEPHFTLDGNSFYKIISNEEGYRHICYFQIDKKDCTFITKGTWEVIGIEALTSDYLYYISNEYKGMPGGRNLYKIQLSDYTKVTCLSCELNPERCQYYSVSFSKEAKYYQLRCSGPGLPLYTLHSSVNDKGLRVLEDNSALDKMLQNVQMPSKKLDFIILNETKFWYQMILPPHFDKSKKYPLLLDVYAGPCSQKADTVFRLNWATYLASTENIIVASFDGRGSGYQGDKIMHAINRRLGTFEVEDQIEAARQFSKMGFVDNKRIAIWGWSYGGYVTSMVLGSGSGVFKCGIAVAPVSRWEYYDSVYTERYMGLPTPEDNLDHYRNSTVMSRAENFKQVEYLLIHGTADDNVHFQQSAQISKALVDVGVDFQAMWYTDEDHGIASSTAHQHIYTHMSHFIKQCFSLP

Take `CC[C@H](C)[C@H](NC(=O)[C@H](Cc1ccccc1)NC(=O)[C@H](CCC(=O)O)NC(=O)[C@H](CCCCN)NC(=O)[C@H](C)NC(=O)[C@H](C)NC(=O)[C@H](CCC(N)=O)NC(=O)CNC(=O)[C@H](CCC(=O)O)NC(=O)[C@H](CC(C)C)NC(=O)[C@H](Cc1ccc(O)cc1)NC(=O)[C@H](CO)NC(=O)[C@H](CO)NC(=O)[C@@H](NC(=O)[C@H](CC(=O)O)NC(=O)[C@H](CO)NC(=O)[C@@H](NC(=O)[C@H](Cc1ccccc1)NC(=O)[C@@H](NC(=O)CNC(=O)[C@H](CCC(=O)O)NC(=O)CNNC(=O)[C@H](C)NC(=O)[C@@H](N)Cc1c[nH]cn1)[C@@H](C)O)[C@@H](C)O)C(C)C)C(=O)N[C@@H](C)C(=O)N[C@@H](Cc1c[nH]c2ccccc12)C(=O)N[C@@H](CC(C)C)C(=O)N[C@H](C(=O)N[C@@H](CCCCN)C(=O)NCC(=O)N[C@@H](CCCNC(=N)N)C(=O)NCC(=O)O)C(C)C` [SP007, L-His-L-Ala-NH—NH—CH2—C(O)-Glu9-37]: the values for the Insulin release with beta TC-6 cell line (3 μM peptide) and with beta TC-6 cell line (15 μM peptide) were 4.51 ng/min/mg and 8.08 ng/min/mg, respectively. In addition, in the data set with beta TC-6 cell line (3 μM peptide, cells alone=100%), the “Activity of 3 μM of each peptide as percentage of insulin release by cells only” value is listed as 113 ± 65%. Also, the “Activity of 15 μM of each peptide as percentage of insulin release by cells only” value in the data set on beta TC-6 cell line (15 μM peptide, cells alone=100%) amounted to 235 ± 91%. Also, the share remaining – broadly, the share of the starting amount still present when the sample was taken – at 22 h was less than 5% on DPP-IV [1] (DPP-IV (isolated peptidase), PBS/TEthA, pH 7.5, 37°, DPP-IV, 22 hr, read-out: percentage of analogue remaining) and 95% in data set [3] (22 hr). In addition, the amount remaining at 47 h on DPP-IV [1] (DPP-IV (isolated peptidase), PBS/TEthA, pH 7.5, 37°, DPP-IV, 47 hr, read-out: percentage of analogue remaining) is less than 5%; in data set [3] (47 hr) it was 95%. In addition, the “susceptibility to DPP-IV hydrolysis” value on DPP-IV [1] (pH 7.5, 37° C., up to 47 hr) is given as “susceptible to DPP-IV hydrolysis”. Besides, in the data set with DPP-IV [2], the metabolised at 22 h was more than 90%.

(Values after patent US20100286024A1, “Insulinotropic compounds and uses thereof” (priority 2005, published 2010).)
